Assay results published in patent US20260167656A1, “PHOSPHORAMIDATE COMPOUNDS AND USES THEREOF” (ALLORION THERAPEUTICS INC, priority 2022, published 2026).

How the values were obtained:
[1] = tested on: non-small cell lung cancer cell line H460; assay: In vitro human cancer cell line cytotoxicity (proliferation) assay in H460, CellTiter-Glo, 72 hours; format: cell-based; details: DMSO condition (no AKR1C3 inhibitor), read-out: CTG H460: Avg IC50 (nM) [Assay Condition: DMSO]
In short: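 IC50s in nM come from CellTiter-Glo viability read after 72 h of compound exposure. Compounds went in from 10 mM DMSO stocks onto H460 cells, which had been plated at 3×10^3 per well and grown 24 h beforehand at 37 °C, 5% CO2.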

[2] = tested on: non-small cell lung cancer cell line H460; assay: H460 proliferation assay in the presence of 3 uM ASP9521 (AKR1C3 specific inhibitor); format: cell-based, human; details: H460 cells, CellTiter-Glo, 72 hours, in the presence of 3 uM ASP9521 added 4 hours prior to compounds; read-out: CTG H460: Avg IC50 (nM) [Assay Condition: ASP9521]
In short: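 AKR1C3 blocked with 3 uM ASP9521 given 4 h ahead of test compounds. H460 cells, plated 24 h earlier, were then treated for 72 h at 37 °C in 5% CO2. CellTiter-Glo luminescence gave viability.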

[3] = Homo sapiens, NCI-H460, 72 h, H460 cells
[4] = Homo sapiens, NCI-H460, H460 cells

SMILES	IC50 [1, 3] [nM]	IC50 [2] [nM]	IC50 ([1]; H460 cells) [nM]	IC50 [1, 4] [nM]
O=[N+]([O-])c1ccc2c(c1Oc1ccc(F)c(-c3ccccc3)c1)CC[C@@H]2OP(=O)(N1CC1)N1CC1 [Example 314]	< 10	1590		
O=[N+]([O-])c1ccc2c(c1Oc1cccc(C3CC3)c1)CCC2OP(=O)(N1CC1)N1CC1 (stereo not shown) [Example 316]		781	< 10	
O=[N+]([O-])c1ccc2c(c1Oc1cccc(C3CC3)c1)CCC2OP(=O)(N1CC1)N1CC1 (stereo not shown) [Example 317]		1010	< 10	
O=[N+]([O-])c1ccc2c(c1Oc1cncc(C3CC3)c1)CC[C@H]2OP(=O)(N1CC1)N1CC1 [Example 318]	< 10	1070		
O=[N+]([O-])c1ccc2c(c1Oc1cncc(C3CC3)c1)CC[C@@H]2OP(=O)(N1CC1)N1CC1 [Example 319]	< 10	521		
Cc1cccc(-c2cccc(Oc3c([N+](=O)[O-])ccc4c3CCC4OP(=O)(N3CC3)N3CC3)c2)n1 (stereo not shown) [Example 321]		6690	10 to 50	
O=[N+]([O-])c1ccc2c(c1Oc1cccc(-c3ccc(F)cn3)c1)CCC2OP(=O)(N1CC1)N1CC1 (stereo not shown) [Example 322]		1610	< 10	
O=[N+]([O-])c1ccc2c(c1Oc1cccc(-c3ccc(F)cn3)c1)CCC2OP(=O)(N1CC1)N1CC1 (stereo not shown) [Example 323]		2690	< 10	
CC(C)(C)c1cncc(Oc2c([N+](=O)[O-])ccc3c2CCC3OP(=O)(N2CC2)N2CC2)c1 (stereo not shown) [Example 325]		608	< 10	
Cc1noc(-c2cc(Oc3c([N+](=O)[O-])ccc4c3CC[C@@H]4OP(=O)(N3CC3)N3CC3)ccc2F)n1 [Example 326]	< 10	1270		
O=[N+]([O-])c1ccc2c(c1Oc1ccc(F)c(-c3ncccn3)c1)CC[C@@H]2OP(=O)(N1CC1)N1CC1 [Example 327]	< 10	1710		
O=[N+]([O-])c1ccc2c(c1Oc1ccc(F)c(-c3ccc(F)cn3)c1)CCC2OP(=O)(N1CC1)N1CC1 (stereo not shown) [Example 328]		4230	< 10	
O=[N+]([O-])c1ccc2c(c1Oc1ccc(F)c(-c3ncc(F)cn3)c1)CCC2OP(=O)(N1CC1)N1CC1 (stereo not shown) [Example 329]		2440	< 10	
Cn1cc(-c2cc(Oc3c([N+](=O)[O-])ccc4c3CCC4OP(=O)(N3CC3)N3CC3)ccc2F)cn1 (stereo not shown) [Example 330]		2980	< 10	
CC(C)c1cc(Oc2c([N+](=O)[O-])ccc3c2CCC3OP(=O)(N2CC2)N2CC2)ccc1F (stereo not shown) [Example 331]		1050	< 10	
CC(C)c1cc(Oc2c([N+](=O)[O-])ccc3c2CCC3OP(=O)(N2CC2)N2CC2)ccc1F (stereo not shown) [Example 332]		1960	< 10	
O=[N+]([O-])c1ccc2c(c1Oc1ccc(O)c(-c3ccc(F)cn3)c1)CCC2OP(=O)(N1CC1)N1CC1 (stereo not shown) [Example 333]		1310	< 10	
O=[N+]([O-])c1ccc2c(c1Oc1ccc(O)c(-c3ccc(F)cn3)c1)CCC2OP(=O)(N1CC1)N1CC1 (stereo not shown) [Example 334]		824	< 10	
O=[N+]([O-])c1ccc2c(c1Oc1ccc(F)c(C3CC3)c1)CCC2OP(=O)(N1CC1)N1CC1 (stereo not shown) [Example 335]		1910	< 10	
O=[N+]([O-])c1ccc2c(c1Oc1ccc(F)c(-c3ccccn3)c1)CCC2OP(=O)(N1CC1)N1CC1 (stereo not shown) [Example 336]		1680	< 10	
O=[N+]([O-])c1ccc2c(c1Oc1ccc(F)c(-c3ccccn3)c1)CC[C@@H]2OP(=O)(N1CC1)N1CC1 [Example 337]		5800	10 to 50	
O=[N+]([O-])c1ccc2c(c1Oc1ccc(O)c(-c3ncc(F)cn3)c1)CCC2OP(=O)(N1CC1)N1CC1 (stereo not shown) [Example 338]		5560	10 to 50	
COc1ccc(Oc2c([N+](=O)[O-])ccc3c2CCC3OP(=O)(N2CC2)N2CC2)cc1-c1ccc(F)cn1 (stereo not shown) [Example 339]		1360	< 10	
Cc1csc(-c2cc(Oc3c([N+](=O)[O-])ccc4c3CCC4OP(=O)(N3CC3)N3CC3)ccc2F)n1 (stereo not shown) [Example 340]		4390	10 to 50	
O=[N+]([O-])c1ccc2c(c1Oc1ccc(O)c(-c3ncccn3)c1)CC[C@@H]2OP(=O)(N1CC1)N1CC1 [Example 341]	< 10	1920		
Cc1cnc(-c2cccc(Oc3c([N+](=O)[O-])ccc4c3CC[C@@H]4OP(=O)(N3CC3)N3CC3)c2)s1 [Example 342]	10 to 50	4270		
Cc1csc(-c2cccc(Oc3c([N+](=O)[O-])ccc4c3CC[C@@H]4OP(=O)(N3CC3)N3CC3)c2)n1 [Example 343]	< 10	2300		

SMILES	IC50 [1, 3] [nM]	IC50 [2] [nM]	IC50 ([1]; H460 cells) [nM]	IC50 [1, 4] [nM]
Cc1ncc(-c2cccc(Oc3c([N+](=O)[O-])ccc4c3CC[C@@H]4OP(=O)(N3CC3)N3CC3)c2)[nH]1 [Example 344]	< 10	1510		
Cn1cnc(-c2cccc(Oc3c([N+](=O)[O-])ccc4c3CC[C@@H]4OP(=O)(N3CC3)N3CC3)c2)c1 [Example 345]		2110		< 10
O=[N+]([O-])c1ccc2c(c1Oc1ccc(F)c(-c3ncns3)c1)CC[C@@H]2OP(=O)(N1CC1)N1CC1 [Example 347]	< 10	1300		
COc1ccc(Oc2c([N+](=O)[O-])ccc3c2CC[C@@H]3OP(=O)(N2CC2)N2CC2)cc1C1CC1 [Example 348]	< 10	827		
Cc1nnc(-c2cccc(Oc3c([N+](=O)[O-])ccc4c3CC[C@@H]4OP(=O)(N3CC3)N3CC3)c2)s1 [Example 349]	< 10	498		
Cn1cncc1-c1cccc(Oc2c([N+](=O)[O-])ccc3c2CC[C@@H]3OP(=O)(N2CC2)N2CC2)c1 [Example 350]	< 10	1870		
O=[N+]([O-])c1ccc2c(c1Oc1cccc(-c3ccnn3CCO)c1)CC[C@@H]2OP(=O)(N1CC1)N1CC1 [Example 351]	< 10	1570		
O=[N+]([O-])c1ccc2c(c1Oc1cccc(-c3nncs3)c1)CC[C@H]2OP(=O)(N1CC1)N1CC1 [Example 352]	< 10	268		
COc1cc(Oc2c([N+](=O)[O-])ccc3c2CC[C@@H]3OP(=O)(N2CC2)N2CC2)cc(-c2ccc(F)cn2)c1 [Example 353]	< 10	1010		
Cn1nnc(-c2cccc(Oc3c([N+](=O)[O-])ccc4c3CC[C@@H]4OP(=O)(N3CC3)N3CC3)c2)n1 [Example 354]	< 10	768		
Cn1nnc(-c2cc(Oc3c([N+](=O)[O-])ccc4c3CC[C@@H]4OP(=O)(N3CC3)N3CC3)ccc2F)n1 [Example 355]	< 10	1130		
O=[N+]([O-])c1ccc2c(c1Oc1cc(F)cc(-c3ncccn3)c1)CC[C@@H]2OP(=O)(N1CC1)N1CC1 [Example 356]	< 10	1990		
COc1cc(Oc2c([N+](=O)[O-])ccc3c2CC[C@@H]3OP(=O)(N2CC2)N2CC2)cc(-c2ncccn2)c1 [Example 357]	< 10	467		
O=[N+]([O-])c1ccc2c(c1Oc1cc(F)cc(-c3ccc(F)cn3)c1)CC[C@@H]2OP(=O)(N1CC1)N1CC1 [Example 358]	< 10	1740		
Cc1nsc(-c2cc(Oc3c([N+](=O)[O-])ccc4c3CC[C@@H]4OP(=O)(N3CC3)N3CC3)ccc2F)n1 [Example 359]		1470		< 10
Cc1nsc(-c2cccc(Oc3c([N+](=O)[O-])ccc4c3CC[C@@H]4OP(=O)(N3CC3)N3CC3)c2F)n1 [Example 360]	< 10	391		
Cc1coc(-c2cccc(Oc3c([N+](=O)[O-])ccc4c3CC[C@@H]4OP(=O)(N3CC3)N3CC3)c2)n1 [Example 361]	10 to 50	3910		
O=[N+]([O-])c1ccc2c(c1Oc1cccc(-c3cnc[nH]3)c1)CC[C@@H]2OP(=O)(N1CC1)N1CC1 [Example 362]	< 10	1660		
O=[N+]([O-])c1ccc2c(c1Oc1ccc(F)c(-c3nncs3)c1)CC[C@@H]2OP(=O)(N1CC1)N1CC1 [Example 363]	< 10	584		
O=[N+]([O-])c1ccc2c(c1Oc1cc(F)cc(-c3ncc(F)cn3)c1)CC[C@@H]2OP(=O)(N1CC1)N1CC1 [Example 364]	10 to 50	4030		
COc1cc(Oc2c([N+](=O)[O-])ccc3c2CC[C@@H]3OP(=O)(N2CC2)N2CC2)cc(-c2ncc(F)cn2)c1 [Example 365]	< 10	1320		
Cn1nccc1-c1cccc(Oc2c([N+](=O)[O-])ccc3c2CCC3OP(=O)(N2CC2)N2CC2)c1 (stereo not shown) [Example 366]		636	< 10	
O=[N+]([O-])c1ccc2c(c1Oc1cccc(-c3ccnn3CC(F)F)c1)CC[C@@H]2OP(=O)(N1CC1)N1CC1 [Example 367]	< 10	321		
CCc1nsc(-c2cccc(Oc3c([N+](=O)[O-])ccc4c3CC[C@@H]4OP(=O)(N3CC3)N3CC3)c2)n1 [Example 368]	10 to 50	3360		
O=[N+]([O-])c1ccc2c(c1Oc1cccc(-c3cn[nH]c3)c1)CC[C@@H]2OP(=O)(N1CC1)N1CC1 [Example 369]	< 10	938		
O=[N+]([O-])c1ccc2c(c1Oc1ccc(F)c(-c3cn[nH]c3)c1)CC[C@@H]2OP(=O)(N1CC1)N1CC1 [Example 370]	< 10	967		
